Experimental data as given in patent EP0533825B1, “ETHER LIPID-NUCLEOSIDE COVALENT CONJUGATES” (WAKE FOREST UNIVERSITY, priority 1990, dated 1991).

Columns and labels:
[1] = tested on: CEM-SS cells; assay: Cell cytotoxicity (Table 1); format: cell-based; details: read-out: Inhibitory Concentration50 For: Cell Cyto-toxicity
[2] = tested on: HIV-1; details: persistently infected monocyte/macrophage (U1) cells
Excerpt: Anti-HIV1 Activity of Lipid-Nucleoside Conjugates. […] In brief, CEM-SS cell monolayers were infected with HIV-1. […] Plaques were counted at five days after infection. In this assay HIV-1 syncytial plaques are seen as large, multicellular foci (10 to 25 nuclei/syncytium) that appear either brown and granular or clear. Silnce the number of HIV-1 syncytial plaques correlates with reverse transcriptase (RT) and p24 core antigen activity in the HIV-1 infected cell overlay fluids, the syncytial plaque assay can be used to quantify the amount of infectious virus. […] The activity of p24 core antigen induced by HIV-1 infection of CEM-SS cells was measured spectrophotometrically using the commercial Coulter EIA.
(§1) Anti-HIV1 Activity of Lipid-Nucleoside Conjugates in Monocyte/Macrophages. Monocyte/macrophages represent a major reservoir of HIV-1 in the infected human host. […] However, these cells tend to be resistent to dideoxynucleoside prodrugs due to low levels of kinases needed to activate the prodrugs. See C. […]

[3] = tested on: HIV-1; details: persistently infected monocyte/macrophage (U1) cells; remark: listed apart in the source
Excerpt: as §1

[4] = tested on: CEM-SS cells; assay: CEM-SS cell growth, 3H-Tdr pulse labelling to measure DNA synthesis; format: cell-based; details: Homo sapiens, 48 hours at 37°C, then 3H-Tdr pulse for 8 hours
Experimental: To determine the IC₅₀ for cell growth, CEM-SS cells in suspension culture (10,000 cells/ml RPMI-1640 growth medium) were incubated with serial dilutions of compound at 37°C for 48 hours and then pulsed labelled with 1 microCi of ³H-Tdr (SA = 20 Ci/mmole) for 8 hours at 37°C to measure DNA synthesis.

Compound | IC50 [4] | IC50 ([1]; Homo sapiens, CEM-SS) | further results
3'-Azido-3'-deoxythymidine-5'-monophosphate-D,L-3-octadecanamido-2-ethoxypropane [Compound A] |  |  | IC50 [1]: 53.8 µM
Cc1cn([C@H]2C[C@H](N=[N+]=[N-])[C@@H](CO)O2)c(=O)[nH]c1=O [AZT, 3'-azido-3'-deoxythymidine] | 5.1 µM | 5.6 µM | Percent of Control (RT DPM) [2]: 90% of Control; Percent of Control (p24 Core Ag) [2]: 101% of Control; Percent of Control (PFU) [3]: 87% of Control
CCCCCCCCCCCCCCCCCC(=O)NCC(COP(=O)([O-])OC(CC(=O)OC[C@H]1O[C@@H](n2cc(C)c(=O)[nH]c2=O)C[C@@H]1N=[N+]=[N-])C[N+](C)(C)C)OCC (stereo partly drawn) [BB, 3'-Azido-3-deoxythymidine-5'-butyrate-γ-N,N,N-trimethyl-ammonium-β-(1-phospho-2-ethoxy-3-octadecanamidopropane)] | 13.7 µM |  | 
CCCCCCCCCCCCCCCCOCC(COP(=O)([O-])OC(CC(=O)OC[C@H]1O[C@@H](n2cc(C)c(=O)[nH]c2=O)C[C@@H]1N=[N+]=[N-])C[N+](C)(C)C)OCC (stereo partly drawn) [Compound AA, 3'-Azido-3'-deoxythymidine-5'-butyrate-γ-N,N,N-trimethyl-ammonium-β-(1-phospho-2-ethoxy-3-hexadecyloxypropane)] | 13.5 µM |  | 
CCCCCCCCCCCCCCCCOCC(COP(=O)(O)OC[C@H]1O[C@@H](n2cc(C)c(=O)[nH]c2=O)C[C@@H]1N=[N+]=[N-])OCC (stereo partly drawn) [Compound B, 3'-Azido-3'-deoxythymidine-5'-monophosphate-D,L-3-hexadecyloxy-2-ethoxypropane] |  | 35 ± 2.1 µM | 
CCCCCCCCCCCCCCCCSCC(COP(=O)(O)OC[C@H]1O[C@@H](n2cc(C)c(=O)[nH]c2=O)C[C@@H]1N=[N+]=[N-])OC (stereo partly drawn) [Compound C, 3'-Azido-3'-deoxythymidine-5'-monophosphate-D,L-3-hexadecylthio-2-methoxypropane] |  | 29.2 ± 5.7 µM | 
O=c1[nH]cnc2c1ncn2[C@H]1CC[C@@H](CO)O1 [DDI, dideoxyinosine] |  | > 100 µM | 
